Measurements: paper PMC7753047, “Reversal of Cancer Multidrug Resistance (MDR) Mediated by ATP-Binding Cassette Transporter G2 (ABCG2) by AZ-628, a RAF Kinase Inhibitor” (Frontiers in Cell and Developmental Biology, 2020)

Key:
ABCG2 [1] = biological target: T1, ABCG2 (Homo sapiens, UniProt Q9UNQ0); assay: vanadate-sensitive ATPase assay in ABCG2 membranes (stimulation); type: cell-based; parameters: full-length human ABCG2 in membranes of transfected HEK293 cells
T1 sequence (Q9UNQ0 1-655): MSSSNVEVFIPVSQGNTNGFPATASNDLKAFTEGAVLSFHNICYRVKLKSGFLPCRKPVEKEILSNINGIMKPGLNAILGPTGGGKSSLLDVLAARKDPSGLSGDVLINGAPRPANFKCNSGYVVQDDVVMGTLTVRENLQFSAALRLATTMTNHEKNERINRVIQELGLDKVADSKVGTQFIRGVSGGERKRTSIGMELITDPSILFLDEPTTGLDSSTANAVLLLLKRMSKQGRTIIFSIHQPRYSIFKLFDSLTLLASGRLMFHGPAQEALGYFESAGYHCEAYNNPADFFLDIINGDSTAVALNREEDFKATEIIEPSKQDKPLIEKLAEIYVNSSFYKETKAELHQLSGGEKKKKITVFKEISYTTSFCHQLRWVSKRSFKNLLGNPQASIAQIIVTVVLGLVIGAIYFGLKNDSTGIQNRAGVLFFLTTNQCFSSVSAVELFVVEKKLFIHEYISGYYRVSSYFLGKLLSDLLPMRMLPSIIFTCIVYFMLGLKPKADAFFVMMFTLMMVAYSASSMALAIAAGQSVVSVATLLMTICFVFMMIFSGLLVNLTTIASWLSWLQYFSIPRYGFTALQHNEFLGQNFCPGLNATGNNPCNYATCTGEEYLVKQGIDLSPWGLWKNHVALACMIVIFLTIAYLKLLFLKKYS

ABCG2 [2] = biological target: T1, ABCG2; assay: vanadate-sensitive ATPase assay in ABCG2 membranes (stimulation up to […]); also inhibition of [3H]-mitoxantrone efflux at […]; type: cell-based; parameters: full-length human ABCG2 in membranes of transfected HEK293 cells; details: read-out: vanadate-sensitive ATPase assay in ABCG2 membranes (stimulation up to 4.3-fold)
ABCG2 [3] = biological target: T1, ABCG2

| SMILES | vanadate-sensitive ATPase assay in ABCG2 membranes (stimulation) (ABCG2 [1]) | further results |
| --- | --- | --- |
| CC[C@@]1(O)C(=O)OCc2c1cc1n(c2=O)Cc2cc3c(CN(C)C)c(O)ccc3nc2-1 [topotecan] | Compared with the ABCG2 substrate topotecan, which is also an ABCG2 ATPase stimulator, AZ-628 showed stronger activation effects |  |
| Cc1ccc(NC(=O)c2cccc(C(C)(C)C#N)c2)cc1Nc1ccc2ncn(C)c(=O)c2c1 [AZ-628] |  | maximal fold induction (ABCG2 [2]): 4.3 |
| O=C1c2c(O)ccc(O)c2C(=O)c2c(NCCNCCO)ccc(NCCNCCO)c21 [mitoxantrone] |  | [3H]-mitoxantrone efflux from ABCG2-overexpressing cells (ABCG2 [3]): plotted to reflect the efflux of [^3H]-mitoxantrone by ABCG2 |
| COc1ccc([C@@H](O)c2cc(-c3ncnc4cc(N5CCOCC5)ccc34)c(F)cc2Cl)nn1 [M3814] | The results showed that AZ-628 stimulated ABCG2 ATPase to a higher level than M3814. |  |
